According to patent US8835440B2, “Cyclic pyrimidin-4-carboxamides as CCR2 receptor antagonists for treatment of inflammation, asthma and COPD” (Boehringer Ingelheim International GmbH, priority 2008, dated 2014):
pKi: −log10 of the molar value.

Target: T1, CCR2 (Homo sapiens, UniProt P41597)
T1 construct: Membranes were prepared from THP-1 cells; endogenous in cells; host or cells: THP-1 cells (membrane preparation)
T1 sequence (P41597 1-360 isoform P41597-2): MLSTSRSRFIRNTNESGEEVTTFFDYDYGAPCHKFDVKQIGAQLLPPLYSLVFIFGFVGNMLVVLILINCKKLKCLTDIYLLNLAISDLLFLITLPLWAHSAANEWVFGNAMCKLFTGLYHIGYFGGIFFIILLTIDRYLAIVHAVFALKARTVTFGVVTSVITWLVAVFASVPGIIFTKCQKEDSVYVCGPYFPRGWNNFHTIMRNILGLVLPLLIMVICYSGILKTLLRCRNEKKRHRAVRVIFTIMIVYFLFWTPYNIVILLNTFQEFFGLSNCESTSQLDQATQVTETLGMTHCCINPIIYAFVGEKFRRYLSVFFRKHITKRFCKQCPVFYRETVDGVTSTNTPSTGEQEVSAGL
Assay: CCR2 receptor membrane binding assay ([125I]MCP-1, THP-1 cell membranes, SPA beads)
Details: for remaining activity at 10 µM: @ 10 μM test compound, THP-1 membranes, read-out: CCR2 % ctrl @ 10 μM; for pKi: dissociation constant hKi, [125I]MCP-1 binding to THP-1 membranes
In short: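 hKi was derived by iterative law-of-mass-action fitting of scintillation counts read at 8 h. Compound (1% DMSO final) competed with ca. 25000 cpm [125I]MCP-1 for THP-1 membranes bound to WGA-PVT beads. Buffer: 25 mM HEPES pH 7.2, 5 mM MgCl2, 0.5 mM CaCl2, 0.2% BSA.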

Row | remaining activity at 10 µM [%] | pKi | SMILES
1 | 53 | 5.52 | Cc1c(NCc2ccc(Cl)c(Cl)c2)ncnc1C(=O)N1CCC(N(C)CC#N)CC1 [Example 182]
2 | 45 | 6.37 | Cc1c(NCc2ccc(Cl)c(Cl)c2)ncnc1C(=O)N1CCC(N2Cc3ccccc3C2)CC1 [Example 183]
3 | 30 | 6.04 | Cc1c(NCc2ccc(Cl)c(Cl)c2)ncnc1C(=O)N1CCC(N2CCC(C(F)(F)F)CC2)CC1 [Example 184]
4 | 53 | 5.38 | CO[C@H]1CN(C2CCN(C(=O)c3ncnc(NCc4ccc(Cl)c(Cl)c4)c3C)CC2)CC[C@H]1NS(C)(=O)=O [Example 185]
5 | 8 | 7.11 | CNC(=O)C1CCN(C2CCN(C(=O)c3ncnc(NCc4ccc(Cl)c(Cl)c4)c3C)CC2)CC1 [Example 186]
6 | 15 | 6.59 | Cc1c(NCc2ccc(Cl)c(Cl)c2)ncnc1C(=O)N1CCC(N2CCC(NC(N)=O)CC2)CC1 [Example 187]
7 | 53 | 5.41 | Cc1c(NCc2ccc(Cl)c(Cl)c2)ncnc1C(=O)N1CCC(N2CCC3(CC2)CCN(S(C)(=O)=O)C3)CC1 [Example 188]
8 | 13 | 6.77 | Cc1c(NCc2ccc(Cl)c(Cl)c2)ncnc1C(=O)N1CCC(N2CCC(N3CCCS3(=O)=O)CC2)CC1 [Example 189]
9 | 27 | 6.11 | Cc1c(NCc2ccc(Cl)c(Cl)c2)ncnc1C(=O)N1CCC(N2CCC3(CCNC3=O)CC2)CC1 [Example 190]
10 | 20 | 6.28 | CO[C@@H]1CN(C2CCN(C(=O)c3ncnc(NCc4ccc(Cl)c(Cl)c4)c3C)CC2)CC[C@H]1NS(C)(=O)=O [Example 191]
11 | 37 | 5.84 | Cc1c(NCc2ccc(Cl)c(Cl)c2)ncnc1C(=O)N1CCC(N2CCC(N3CCCC3=O)CC2)CC1 [Example 192]
12 | 35 | 5.81 | CNC(=O)C1CN(C2CCN(C(=O)c3ncnc(NCc4ccc(Cl)c(Cl)c4)c3C)CC2)C1 [Example 193]
13 | 25 | 6.31 | CC(=O)N(C)C1CCN(C2CCN(C(=O)c3ncnc(NCc4ccc(Cl)c(Cl)c4)c3C)CC2)CC1 [Example 194]
14 | 14 | 6.85 | CCS(=O)(=O)NC1CCN(C2CCN(C(=O)c3ncnc(NCc4ccc(Cl)c(Cl)c4)c3C)CC2)CC1 [Example 195]
15 | 19 | 6.18 | Cc1c(NCc2ccc(C(C)(C)C)cc2)ncnc1C(=O)N1CCC(N2CCC(S(=O)(=O)N(C)C)CC2)CC1 [Example 196]
16 | 4 | 7.48 | Cc1c(NCc2ccc(Cl)c(Cl)c2)ncnc1C(=O)N1CCC(N2CCC(NS(=O)(=O)C(C)C)CC2)CC1 [Example 197]
17 | 1 | 7.24 | CCOC1CCN(C2CCN(C(=O)c3ncnc(NCc4ccc(C(C)(C)C)cc4)c3C)CC2)CC1 [Example 198]
18 | 9 | 6.27 | Cc1c(NCc2ccc(C(C)(C)C)cc2)ncnc1C(=O)N1CCC(N2CCC(CNS(C)(=O)=O)CC2)CC1 [Example 199]
19 | 5 | 6.97 | Cc1c(NCc2ccc(C(C)(C)C)cc2)ncnc1C(=O)N1CCC(N2CCC(C(C)(C)C)CC2)CC1 [Example 200]
20 | 6 | 7.00 | Cc1c(NCc2ccc(C(C)(C)C)cc2)ncnc1C(=O)N1CCC(N2CCC(c3ccncc3)CC2)CC1 [Example 201]
21 | 7 | 6.53 | Cc1c(NCc2ccc(C(C)(C)C)cc2)ncnc1C(=O)N1CCC(N2CCC(C#N)CC2)CC1 [Example 202]
22 | 11 | 6.19 | Cc1c(NCc2ccc(C(C)(C)C)cc2)ncnc1C(=O)N1CCC(N2CCC(Oc3ccc(F)c(F)c3)CC2)CC1 [Example 203]
23 | 6 | 6.91 | Cc1c(NCc2ccc(C(C)(C)C)cc2)ncnc1C(=O)N1CCC(N2CCC(Oc3ccccn3)CC2)CC1 [Example 204]
24 | 11 | 6.87 | Cc1c(NCc2ccc(C(C)(C)C)cc2)ncnc1C(=O)N1CCC(N2CCC(NS(=O)(=O)C(C)C)CC2)CC1 [Example 205]
25 | 3 | 7.36 | CCN(C1CCN(C2CCN(C(=O)c3ncnc(NCc4ccc(C(C)(C)C)cc4)c3C)CC2)CC1)S(C)(=O)=O [Example 206]
26 | 35 | 5.93 | Cc1nc(NCc2ccc(C(C)(C)C)cc2)c(C)c(C(=O)N2CCC(N3CCC(S(=O)(=O)N(C)C)CC3)CC2)n1 [Example 207]

Row | remaining activity at 10 µM [%] | pKi | SMILES
27 | 7 | 7.00 | COC1CCN(C2CCN(C(=O)c3ncnc(NCc4ccc(C(C)(C)C)cc4)c3C)CC2)CC1 [Example 208]
28 | 7 | 6.75 | Cc1c(NCc2ccc(C(C)(C)C)cc2)ncnc1C(=O)N1CCC(N2CCOC(C)C2)CC1 (centres unmarked) [Example 209]
29 | 0 | 7.08 | Cc1c(NCc2ccc(C(C)(C)C)cc2)ncnc1C(=O)N1CCC(N2CCC(c3ccccc3)C2)CC1 (centres unmarked) [Example 210]
30 | 5 | 6.85 | CCC(C)NC(=O)C1CCN(C2CCN(C(=O)c3ncnc(NCc4ccc(C(C)(C)C)cc4)c3C)CC2)CC1 (centres unmarked) [Example 211]
31 | 24 | 6.14 | Cc1c(NCc2ccc(C(C)(C)C)cc2)ncnc1C(=O)N1CCC(N2CCC(n3c(C)nnc3C)CC2)CC1 [Example 212]
32 | 14 | 6.37 | Cc1noc(C2CCN(C3CCN(C(=O)c4ncnc(NCc5ccc(C(C)(C)C)cc5)c4C)CC3)CC2)n1 [Example 213]
33 | 20 | 6.15 | CNC(=O)C[C@H]1CCCN1C1CCN(C(=O)c2ncnc(NCc3ccc(C(C)(C)C)cc3)c2C)CC1 [Example 214]
34 | 42 | 5.67 | CNC(=O)C[C@@H]1CCCN1C1CCN(C(=O)c2ncnc(NCc3ccc(C(C)(C)C)cc3)c2C)CC1 [Example 215]
35 | 59 | 5.37 | Cc1c(NCc2ccc(C(C)(C)C)cc2)ncnc1C(=O)N1CCC(N2CCC[C@@H]2CC(=O)N(C)C)CC1 [Example 216]
36 | 54 | 5.36 | Cc1c(NCc2ccc(C(C)(C)C)cc2)ncnc1C(=O)N1CCC(N2CCC[C@H]2CC(=O)N(C)C)CC1 [Example 217]
37 | 8 | 6.55 | Cc1c(NCc2ccc(C(C)(C)C)cc2)ncnc1C(=O)N1CCC(N2CC(C)OC(C)C2)CC1 (centres unmarked) [Example 218]
38 | 22 | 6.32 | CO[C@@H]1CCN(C2CCN(C(=O)c3ncnc(NCc4ccc(C(C)(C)C)cc4)c3C)CC2)C1 [Example 219]
39 | 27 | 6.01 | CO[C@H]1CCN(C2CCN(C(=O)c3ncnc(NCc4ccc(C(C)(C)C)cc4)c3C)CC2)C1 [Example 220]
40 | 12 | 6.76 | CNS(=O)(=O)C1CCN(C2CCN(C(=O)c3ncnc(NCc4ccc(C(C)(C)C)cc4)c3C)CC2)CC1 [Example 221]
41 | 31 | 5.88 | Cc1c(NCc2ccc(C(C)(C)C)cc2)ncnc1C(=O)N1CCC(N2CC(N(C)S(C)(=O)=O)C2)CC1 [Example 222]
42 | 14 | 6.61 | Cc1c(NCc2ccc(C(C)(C)C)cc2)ncnc1C(=O)N1CCC(N2CC(NS(C)(=O)=O)C2)CC1 [Example 223]
43 | 35 | 5.91 | CNC(=O)C1(C)CCN(C2CCN(C(=O)c3ncnc(NCc4ccc(C(C)(C)C)cc4)c3C)CC2)CC1 [Example 224]
44 | 0 | 7.68 | Cc1c(NCc2ccc(C(C)(C)C)cc2)ncnc1C(=O)N1CCC(N2CCC(c3ccccc3)CC2)CC1 [Example 225]
45 | 36 | 5.93 | Cc1c(NCc2ccc(Cl)c(Cl)c2)ncnc1C(=O)N1CCC(N2CC[C@H](N(C)S(C)(=O)=O)C2)CC1 [Example 226]
46 | 22 | 6.48 | CO[C@@H]1CN(C2CCN(C(=O)c3ncnc(NCc4ccc(Cl)c(Cl)c4)c3C)CC2)CC[C@H]1N(C)S(C)(=O)=O [Example 227]
47 | 16 | 6.48 | Cc1c(NCc2ccc(Cl)c(Cl)c2)ncnc1C(=O)N1CCC(N2CCC(S(N)(=O)=O)CC2)CC1 [Example 228]
48 | 9 | 5.81 | Cc1c(NCc2ccc(C(C)(C)C)cc2)ncnc1C(=O)N1CCC(N(C)C2CCCOC2)CC1 (centres unmarked) [Example 228a]
49 | 4 | 8.70 | COC1COCCC1NC1CCN(C(=O)c2ncnc(NCC3CCC[C@@H](c4ccccc4)C3)c2C)CC1 (some centres unmarked) [Example 228b]
50 | 0 | 7.54 | COC1COCCC1NC1CCN(C(=O)c2ncnc(NCc3ccc(C(C)(C)C)cc3)c2C)CC1 (centres unmarked) [Example 228c]
51 | 1 | 7.04 | Cc1c(NCc2ccc(C(C)(C)C)cc2)ncnc1C(=O)N1CCC(NC2CCOCC2F)CC1 (centres unmarked) [Example 228d]
52 | 40 | 5.43 | CCOC(=O)N1CCC(NC2CCN(C(=O)c3ncnc(NCc4ccc(C(C)(C)C)cc4)c3C)CC2)C(OC)C1 (centres unmarked) [Example 228e]
